Results on seven molecules are retold here after paper PMC10901892 (Scientific Reports, 2024).

“Also recorded” adds a separate entry of the source. Where only a bound is given, the exact number is not on record here.

Data set [1] deals with T1, mitochondrial electron transport chain (complex II) (Mus musculus, UniProt Q8K2B3+Q9CQA3+Q9CXV1+Q9CZB0).
T1 construct: Mouse liver mitochondria were isolated by homogenization and differential centrifugation; from tissue; host or cells: liver of male C57BL/6JINV (Jax) mice; isolated mitochondria, intact or disrupted by a freeze-thaw cycle
T1 sequence (Q8K2B3 43-664): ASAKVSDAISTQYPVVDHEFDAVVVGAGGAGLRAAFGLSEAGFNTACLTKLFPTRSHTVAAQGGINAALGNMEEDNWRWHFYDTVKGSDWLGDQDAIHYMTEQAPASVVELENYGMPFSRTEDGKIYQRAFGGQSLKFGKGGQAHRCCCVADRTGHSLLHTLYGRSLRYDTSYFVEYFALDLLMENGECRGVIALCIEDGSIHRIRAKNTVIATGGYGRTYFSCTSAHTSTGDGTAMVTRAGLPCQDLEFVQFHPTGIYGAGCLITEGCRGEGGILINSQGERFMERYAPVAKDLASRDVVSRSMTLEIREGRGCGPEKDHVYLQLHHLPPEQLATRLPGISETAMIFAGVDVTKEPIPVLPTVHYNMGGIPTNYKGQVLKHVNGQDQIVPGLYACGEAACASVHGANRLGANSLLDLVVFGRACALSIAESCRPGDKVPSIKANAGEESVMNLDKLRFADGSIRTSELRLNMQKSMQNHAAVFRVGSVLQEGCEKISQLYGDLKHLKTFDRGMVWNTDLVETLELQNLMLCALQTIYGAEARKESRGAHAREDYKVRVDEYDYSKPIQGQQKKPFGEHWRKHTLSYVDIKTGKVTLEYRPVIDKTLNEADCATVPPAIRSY
T1 sequence (Q9CQA3 31-282): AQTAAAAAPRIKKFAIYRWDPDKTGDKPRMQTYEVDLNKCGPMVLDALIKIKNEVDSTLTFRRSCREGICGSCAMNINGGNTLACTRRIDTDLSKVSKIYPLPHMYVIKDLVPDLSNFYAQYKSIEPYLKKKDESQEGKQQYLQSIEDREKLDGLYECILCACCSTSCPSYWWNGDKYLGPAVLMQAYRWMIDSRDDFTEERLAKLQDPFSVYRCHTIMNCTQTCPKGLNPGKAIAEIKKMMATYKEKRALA
T1 sequence (Q9CZB0 30-169): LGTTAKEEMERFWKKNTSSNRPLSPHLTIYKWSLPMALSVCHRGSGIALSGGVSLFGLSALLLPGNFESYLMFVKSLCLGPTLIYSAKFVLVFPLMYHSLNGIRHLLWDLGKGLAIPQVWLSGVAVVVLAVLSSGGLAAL
T1 sequence (Q9CXV1 57-159): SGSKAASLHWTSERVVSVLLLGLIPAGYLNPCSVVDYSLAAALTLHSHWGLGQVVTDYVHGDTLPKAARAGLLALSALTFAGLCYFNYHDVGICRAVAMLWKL
The class given is biochemical.

Data set [2] deals with isolated mouse liver mitochondria. It is filed as biochemical. As to conditions: for EC50: read-out: EC50 of uncoupling activity.
The conditions of data set [3]: in vivo, 5 mg/kg.
A short description of data set [4]: Stability in aqueous 100 mM KPO4 buffer with or without GSH.
In data set [5] the test system is rats. As to conditions: cited from earlier work.
Data set [6] can be described thus: In vitro metabolic stability with rat liver microsomes. In general terms: Microsomes from liver hold many membrane-bound enzymes, among them those of drug oxidation.
A short description of data set [7]: NMY1009 plasma and tissue concentrations over time by LC/MS. It is filed as in vivo. The conditions noted are these: mice, 5 mg/kg i.p. Here is the method: (§1) Figure 2 Determination of NMY1009 toxicity and plasma and tissue concentrations. (A) 7 treatment groups and 1 vehicle group (four mice per each group) were subjected to 7 daily administrations of the drug i.p. and well-being checks were carried out at 6 and 24 h after each treatment. No deaths or adverse reactions at any of the used NMY1009 doses were observed. (B, C) Tissue and plasma kinetics of NMY1009. Mice were injected with 5 mg/kg NMY1009 i.p. NMY1009 concentrations were measured by LC/MS.
To characterize the in vivo pharmacokinetics properties of NMY1009, we measured plasma and tissue concentrations over time after an i.p. injection of 5 mg/kg NMY1009. […] The kinetics of the tissue drug concentrations were similar compared to plasma. The observed decline in the adipose tissue concentrations may be due to drug metabolism or renal excretion. The latter possibility appears less likely as the drug concentration in the kidney was very low. […] However, the adipose tissue drug concentrations decreased over time with a half-life of approximately 3 h.
50 mg of tissue were extracted into 1000 μl of acetonitrile. The entire supernatant was dried and reconstituted into 200 μl of 1:1 acetonitrile/water.

Data set [8] relates to mice on high fat diet. The conditions noted are these: mouse, in vivo, ip, 3 mg/kg.
The test system of data set [9] is mice. Briefly: NMY1009 in vivo toxicity study. The conditions noted are these: i.p. daily, 1 to 100 mg/kg, seven days. Here is the method:
as §1
7 treatment groups and 1 vehicle group (four mice per each group) were subjected to 7 daily administrations of the drug i.p. NMY1009 was dissolved in 100% DMSO and the injection volume was 30 μl. Well-being checks were carried out at 6 and 24 h after each treatment. The in vivo toxicity study was carried out by Altogen Labs (Austin, TX).

Setting [10] is: aqueous buffer, ESI mass spectrometry.
The mark [11] stands for this setting: aqueous solution without GSH, 37 °C.

On to `O=[N+]([O-])c1ccc(O)c([N+](=O)[O-])c1` [2,4-dinitrophenol, reference compound], for which, in data set [1], the “inhibitory effect on mitochondrial electron transport chain activity” value was “no inhibitory effect”. Also, the “EC50, fold stimulation of oxygen consumption” value in [2] worked out at 9.6 µM.

As to `CCCCCCCCOc1cc([N+](=O)[O-])c(O)c([N+](=O)[O-])c1` [2,6-dinitro-4-(octyloxy)phenol], in data set [1], the “effect on mitochondrial oxygen consumption at very high concentrations” value is listed as “inhibited mitochondrial oxygen consumption at very high concentrations”, the “effect on oxygen consumption with NADH as substrate” value was “minimal effect” and the “effect on succinate-dependent oxygen consumption after disruption of the inner membrane” value was “inhibited succinate-dependent oxygen consumption”. Moreover, the “plasma concentration kinetics (in words)” value in [3] (C57BL/6, mouse) is “decreased rapidly with much faster kinetics compared to 2,6-dinitrophenol”. Besides, in data set [3] (mouse), the “drug tissue concentration, heart” value is on record as “BLQ”; the “drug tissue concentration, kidney” value was “BLQ”; the “drug tissue concentration, liver” value was “BLQ”; the “health of animals during the study” value is recorded as “healthy throughout the study duration”. Moreover, in data set [3] (mouse, ip), the “tissue concentrations (in words)” value is given as “very low”. Moreover, in [2], the “EC50, fold stimulation of oxygen consumption” value turned out to be 3.7 µM.

`COc1ccc(NN=C(C#N)C#N)cc1` [C1-CCP]: the “uncoupling activity (in words)” value in [2] is “lower uncoupling activity compared to C4-CCP and C8-CCP”.

What is called EC50 is the midpoint of the concentration-response curve. In the case of `CCCCOc1ccc(NN=C(C#N)C#N)cc1` [C4-CCP], the EC50 in [2] is around 100 nM.

As to `CCCCCCCCCCCCOc1ccc(NN=C(C#N)C#N)cc1` [C12-CCP], in data set [2], the “uncoupling activity (in words)” value is “no activity; also recorded: low uncoupling activity”.

Take `N#CC(C#N)=NNc1ccc(OC(F)(F)F)cc1` [FCCP, carbonyl cyanide p-trifluoromethoxy-phenylhydrazone, reference compound]: in data set [4] (24 h, 37 °C, 100 mM KPO4), the “drug turnover in aqueous solution in the absence or presence of 0.2 mM GSH (in words)” value was “not metabolized significantly”. The “incubation time at which the O-dealkylated metabolite (loss of the trifluoromethyl group) was observed” value in data set [4] (setting [10]) was found to be 24 h. Also, in [5], the “doses causing adverse effects” value is reported as at least 5 mg/kg and the doses causing death entry is reported as “higher than 20 mg/kg”. Further, in [6] (presence and absence of NADPH, up to 45 min, 37 °C), the “stability upon incubation with rat liver microsomes (in words)” value was “stable”.

Regarding `CCCCCCCCOc1ccc(NN=C(C#N)C#N)cc1` [NMY1009, (4-octyloxy-phenyl)carbonhydrazonoyl dicyanide], the “tissue distribution (in words)” value in data set [7] was “highest drug tissue concentrations were found in the different types of adipose tissue”. In addition, in data set [7] (mouse, adipose tissue, ip, read-out: half-life of adipose tissue drug concentrations (converted)), the half-life is around 180 min. Besides, the Tmax in data set [7] (mouse, plasma, ip, read-out: time of peak plasma concentration (converted)) was 30 min. Also, in data set [8], the “Glucose Tolerance Test response vs vehicle” value is listed as “no altered Glucose Tolerance Test response”; the “blood glucose concentrations and other blood markers of metabolic health vs vehicle” value was “no significant differences in blood glucose concentrations and other blood markers of metabolic health”; the “body composition (body weight and fat mass gains) vs vehicle” value is reported as “no changes in the body composition”; the “respiratory exchange ratio and energy expenditure vs vehicle” value was “no differences the respiratory exchange ratio and energy expenditure”. In addition, the “serum adiponectin concentrations vs vehicle” value in [8] is “decrease in serum adiponectin concentrations”. For the same molecule, the “incubation time at which the dealkylated metabolite (loss of the octyl group) was observed” value in data set [4] (setting [10]) worked out at 30 min. In data set [4] (setting [11]), the “time after which one third of the drug was turned over” value was “approximately 1 h” and the “time after which two thirds of the drug were turned over” value was 6 h. For the same molecule, the “drug remaining at the end of the 24 h incubation” value in data set [4] (aqueous solution without GSH, 37 °C, 10 μM) is given as “about 18%”. In addition, the “deaths or adverse reactions (toxicity)” value in [9] was “No deaths or adverse reactions were observed; also recorded: no toxicity”. The molecule also showed a half-life at 1 µM in data set [6] (rat, microsomes, pH 7.4) of around 30 min. Further, in data set [2], the EC50 was around 100 nM.
